{"source": "patent US9771618B2", "about": "“Methods for treating breast cancer” (Bioarray Genetics, Inc., priority 2009, dated 2017)", "origin": "cited, not measured here", "system": "locally advanced breast cancer", "details": "24 tumors of the Chang, et al. dataset (10 of 24); response assessed after neoadjuvant chemotherapy", "data": [{"smiles": "CC(=O)O[C@H]1C(=O)[C@@]2(C)[C@H]([C@H](OC(=O)c3ccccc3)[C@]3(O)C[C@H](OC(=O)[C@H](O)[C@@H](NC(=O)c4ccccc4)c4ccccc4)C(C)=C1C3(C)C)[C@]1(OC(C)=O)CO[C@@H]1C[C@@H]2O", "note": "[taxol, paclitaxel]", "values": [{"measurement": "overall taxol sensitive rate", "result": 41.7, "unit": "%"}]}]}
